Test results published in ChEMBL document CHEMBL5729469, “Compounds for treating ILK-mediated diseases” (2022).

These compounds were tested against Epidermal growth factor receptor (Homo sapiens, UniProt P00533) (assay: Biochemical Assay: Thus, while these compounds were extensively used in studying ILK-mediated cellular and disease processes, their reported inhibitory effects are probably due to unknown artifacts or indirect binding events. Next, we turned our attention to previously reported studies on kinase profiling and quantitative chemical proteomics. These studies suggested that a widely known lung …).
Sequence of Epidermal growth factor receptor (P00533 whole entry): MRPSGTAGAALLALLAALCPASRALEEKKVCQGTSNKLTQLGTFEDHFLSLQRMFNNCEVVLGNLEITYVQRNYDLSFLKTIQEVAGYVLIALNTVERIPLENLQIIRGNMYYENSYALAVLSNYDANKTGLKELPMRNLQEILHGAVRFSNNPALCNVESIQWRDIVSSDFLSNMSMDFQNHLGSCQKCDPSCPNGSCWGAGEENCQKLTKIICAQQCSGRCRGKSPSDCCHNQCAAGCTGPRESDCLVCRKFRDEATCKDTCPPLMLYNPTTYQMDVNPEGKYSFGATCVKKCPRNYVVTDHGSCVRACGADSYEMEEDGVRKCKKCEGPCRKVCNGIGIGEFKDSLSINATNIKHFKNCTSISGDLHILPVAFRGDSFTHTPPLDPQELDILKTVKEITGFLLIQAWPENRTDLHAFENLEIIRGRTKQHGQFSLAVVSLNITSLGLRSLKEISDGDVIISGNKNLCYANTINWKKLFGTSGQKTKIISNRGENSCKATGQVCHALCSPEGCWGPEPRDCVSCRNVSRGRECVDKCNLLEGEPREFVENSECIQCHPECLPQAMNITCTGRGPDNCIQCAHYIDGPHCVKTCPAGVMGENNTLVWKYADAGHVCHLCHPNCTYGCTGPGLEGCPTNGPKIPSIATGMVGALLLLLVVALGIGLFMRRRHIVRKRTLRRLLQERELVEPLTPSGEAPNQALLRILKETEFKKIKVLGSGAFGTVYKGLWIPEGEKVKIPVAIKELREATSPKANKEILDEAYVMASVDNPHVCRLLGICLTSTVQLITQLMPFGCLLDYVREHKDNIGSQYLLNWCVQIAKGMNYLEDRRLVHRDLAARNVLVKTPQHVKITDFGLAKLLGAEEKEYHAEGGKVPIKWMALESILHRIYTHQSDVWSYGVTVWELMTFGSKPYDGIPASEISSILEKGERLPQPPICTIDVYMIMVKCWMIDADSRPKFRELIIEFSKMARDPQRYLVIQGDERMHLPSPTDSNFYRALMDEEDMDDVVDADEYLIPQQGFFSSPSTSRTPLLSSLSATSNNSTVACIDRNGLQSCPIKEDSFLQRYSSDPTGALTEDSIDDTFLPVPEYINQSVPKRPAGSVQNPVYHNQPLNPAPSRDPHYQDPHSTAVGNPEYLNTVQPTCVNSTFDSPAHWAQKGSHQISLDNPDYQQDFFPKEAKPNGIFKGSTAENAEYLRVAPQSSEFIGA

SMILES | Kd [µM]
C#Cc1cc(Nc2ncnc3cc(OCCOC)ccc23)cc(OCCOCC)c1 | 17.7
C#Cc1cc(C#C)cc(Nc2ncnc3cc(OC)c(OC)cc23)c1 | 1.15
C#Cc1cc(Nc2ncnc3cc(OCCOC)c(OCCOC)cc23)ccc1C | 0.745
